Results as given in ChEMBL document CHEMBL1201862, “PubChem BioAssay data set” (2004).
Calls of active or inactive are those of the source.

Tests used:
H9c2 = assay: cells; format: functional, cell-based; details: Rattus norvegicus, H9c2, Myocardium;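 further: confirmatory concentration-response retest of ultra-high-throughput screening hits for modulation of myocardial damage; cell death induced by hydrogen peroxide oxidative stress; compound pretreatment for 60 min then peroxide exposure for 2 h; potency is for protecting the cells against peroxide damage rather than for killing them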
Paired box protein Pax-8 = Paired box protein Pax-8 (Homo sapiens, UniProt Q06710); assay: PAX8 transcriptional activity inhibition in RMG-I – RMG-I cells, luciferase, cherry-pick, dose response (AID 687027); format: functional, cell-based;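 further: luciferase reporter driven by Pax8 target thyroperoxidase promoter measured by SteadyGlo luminescence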
Leucine aminopeptidase = molecular target: T1, Leucine aminopeptidase (Plasmodium falciparum 3D7, UniProt Q8IL11); assay: P. falciparum M17LAP inhibitors, primary screen, biochemical, fluorogenic H-Leu-NHMec substrate, 1536-well (AID 1619); format: functional
T1 sequence (Q8IL11 whole entry): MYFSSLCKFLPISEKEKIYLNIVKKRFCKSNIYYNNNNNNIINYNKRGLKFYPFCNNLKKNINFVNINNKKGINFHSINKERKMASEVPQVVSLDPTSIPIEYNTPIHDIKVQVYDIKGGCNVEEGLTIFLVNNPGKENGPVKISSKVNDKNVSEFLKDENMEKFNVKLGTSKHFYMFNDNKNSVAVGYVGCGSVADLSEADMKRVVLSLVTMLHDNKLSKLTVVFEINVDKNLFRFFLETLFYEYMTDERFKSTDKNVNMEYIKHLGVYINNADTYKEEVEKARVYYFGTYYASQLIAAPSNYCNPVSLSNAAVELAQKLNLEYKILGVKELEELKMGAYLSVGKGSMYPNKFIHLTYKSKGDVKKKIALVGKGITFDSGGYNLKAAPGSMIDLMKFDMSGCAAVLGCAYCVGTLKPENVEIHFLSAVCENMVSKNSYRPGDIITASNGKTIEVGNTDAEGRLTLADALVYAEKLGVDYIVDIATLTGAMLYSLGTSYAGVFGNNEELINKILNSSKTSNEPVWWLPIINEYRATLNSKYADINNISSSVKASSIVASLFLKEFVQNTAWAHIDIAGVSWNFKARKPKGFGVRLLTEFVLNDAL

[1] = molecular target: T2, Calpain-2 catalytic subunit (Sus scrofa, UniProt P43367); assay: m-calpain protease blockers, concentration series – biochemical, fluorogenic peptide substrate, dose response (AID 1420); format: functional
T2 sequence (P43367 whole entry): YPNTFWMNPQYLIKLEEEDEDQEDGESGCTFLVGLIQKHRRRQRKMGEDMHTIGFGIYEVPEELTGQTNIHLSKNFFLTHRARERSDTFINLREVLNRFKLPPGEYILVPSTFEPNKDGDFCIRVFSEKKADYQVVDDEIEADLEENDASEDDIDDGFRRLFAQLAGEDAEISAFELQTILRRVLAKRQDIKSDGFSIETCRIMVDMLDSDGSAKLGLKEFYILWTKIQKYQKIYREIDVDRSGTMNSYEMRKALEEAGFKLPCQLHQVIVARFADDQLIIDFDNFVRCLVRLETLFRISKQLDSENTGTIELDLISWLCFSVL

[2] = DRD fibroblast viability loss – cell-based, non-viral oncogenic, luminescence, dose response (AID 1934); format: functional; details: Homo sapiens
BJ [3] = assay: cells; format: functional, cell-based; details: Homo sapiens
BJ [4] = assay: BJ-TERT-LT-ST fibroblast viability loss – cell-based, RAS-independent, luminescence, dose response (AID 1935); format: functional; details: Homo sapiens;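 further: BJ fibroblasts immortalized with TERT plus LT and ST oncogenes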
BJ [5] = assay: BJ-TERT fibroblast viability loss – cell-based, RAS-independent, luminescence, dose response (AID 1933); format: functional; details: Homo sapiens
[6] = molecular target: T3, Polyadenylate-binding protein 1 (Homo sapiens, UniProt P11940); assay: MLLE domain peptide-binding blockers, IC50 – biochemical, fluorescence polarization, FITC-PAM2 peptide, dose response (AID 602259); format: functional; details: read-out: IC50_Mean
[7] = molecular target: T3, Polyadenylate-binding protein 1; assay: MLLE binding blockers, Cy5 peptide tracer – biochemical, fluorescence polarization, Cy5-PAM2 peptide, secondary, miRNA deadenylation inhibitor project, dose response (AID 602260); format: functional; details: read-out: IC50_Mean
[8] = molecular target: FAD-linked sulfhydryl oxidase ALR (Homo sapiens, UniProt P55789); assay: ALR-catalysed DTT oxidation blockers – biochemical, H2O2 detection, luminescence, cherry-pick, dose response (AID 493248)
[9] = molecular target: T4, Rac GTPase-activating protein 1 (Homo sapiens, UniProt Q9H0H5); assay: blockers of MgcRacGAP-driven Rac1 GTP hydrolysis – biochemical, ADP Hunter fluorescence, primary and confirmatory, confirmation (AID 624330); format: functional
T4 sequence (Q9H0H5 whole entry): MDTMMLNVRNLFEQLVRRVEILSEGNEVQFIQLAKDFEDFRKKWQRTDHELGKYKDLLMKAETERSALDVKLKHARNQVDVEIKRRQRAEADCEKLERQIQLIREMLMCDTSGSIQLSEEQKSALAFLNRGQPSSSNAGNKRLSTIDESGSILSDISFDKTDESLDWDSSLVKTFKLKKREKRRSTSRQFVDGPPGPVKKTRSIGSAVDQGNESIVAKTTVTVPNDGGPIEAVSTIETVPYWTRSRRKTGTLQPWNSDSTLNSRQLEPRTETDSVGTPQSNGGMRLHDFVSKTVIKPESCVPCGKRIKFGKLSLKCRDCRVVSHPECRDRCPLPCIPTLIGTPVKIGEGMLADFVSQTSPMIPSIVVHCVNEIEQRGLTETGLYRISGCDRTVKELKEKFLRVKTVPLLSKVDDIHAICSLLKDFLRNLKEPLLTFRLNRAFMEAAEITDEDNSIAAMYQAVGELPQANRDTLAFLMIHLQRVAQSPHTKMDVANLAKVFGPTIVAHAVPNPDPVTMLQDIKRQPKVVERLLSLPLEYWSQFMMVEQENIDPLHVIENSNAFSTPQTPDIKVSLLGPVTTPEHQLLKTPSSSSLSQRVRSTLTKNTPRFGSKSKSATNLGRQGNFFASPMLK

[10] = toxicity toward HepG2 liver cells – cell-based, plate reader, cherry-pick, antagonist series, cytotoxicity control, dose response (AID 743416); format: functional
[11] = viability loss in HEK293 cells – cell-based, plate reader, cherry-picked samples, cytotoxicity control, dose response (AID 743446); format: functional
[12] = blockers of bursicon-stimulated LGR2 cAMP reporter – cell-based, HEK293, CRE-luciferase reporter, cherry pick, set 2, dose response (AID 743343); format: functional;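 further: transfected cells were stimulated with diluted bursicon conditioned medium after compound addition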
[13] = A549 cell cytotoxicity, dose response, cytotoxicity control, plate reader, cherry-pick, antagonist series (AID 743412); format: functional, cell-based
[14] = blockade of melanocortin 4 receptor signaling – cell-based, plate reader, cherry pick, counter-screen for LGR2 antagonist project, dose response (AID 743444); format: functional;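 further: transfected HEK 293 cells stimulated with alpha-MSH peptide; potency of inhibitors of the alpha-MSH evoked signal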

T3 sequence (P11940 whole entry, the tested form may be a part): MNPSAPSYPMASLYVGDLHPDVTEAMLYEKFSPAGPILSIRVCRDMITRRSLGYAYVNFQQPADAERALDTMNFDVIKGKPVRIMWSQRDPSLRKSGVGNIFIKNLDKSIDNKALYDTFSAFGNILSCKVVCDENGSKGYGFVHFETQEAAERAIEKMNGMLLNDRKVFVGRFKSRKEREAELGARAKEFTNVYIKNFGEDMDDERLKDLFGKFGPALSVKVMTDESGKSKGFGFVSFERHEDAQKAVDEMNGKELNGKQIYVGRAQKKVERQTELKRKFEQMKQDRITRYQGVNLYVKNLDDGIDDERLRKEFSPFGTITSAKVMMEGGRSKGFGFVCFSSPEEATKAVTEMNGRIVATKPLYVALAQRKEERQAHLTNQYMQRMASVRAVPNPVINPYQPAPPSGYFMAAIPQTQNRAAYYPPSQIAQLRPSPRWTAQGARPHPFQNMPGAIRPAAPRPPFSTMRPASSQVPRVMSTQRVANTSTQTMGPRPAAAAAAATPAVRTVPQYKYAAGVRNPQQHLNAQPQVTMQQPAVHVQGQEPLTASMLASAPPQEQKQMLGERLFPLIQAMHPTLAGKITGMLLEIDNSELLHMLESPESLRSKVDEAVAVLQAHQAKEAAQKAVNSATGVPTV
Sequence of FAD-linked sulfhydryl oxidase ALR (P55789 whole entry): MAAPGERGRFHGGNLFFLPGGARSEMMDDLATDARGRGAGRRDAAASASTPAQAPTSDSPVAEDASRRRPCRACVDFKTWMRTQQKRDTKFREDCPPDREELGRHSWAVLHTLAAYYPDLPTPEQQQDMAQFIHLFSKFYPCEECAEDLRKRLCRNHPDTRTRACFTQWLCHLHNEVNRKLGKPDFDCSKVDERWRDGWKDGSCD
Sequence of Paired box protein Pax-8 (Q06710 whole entry): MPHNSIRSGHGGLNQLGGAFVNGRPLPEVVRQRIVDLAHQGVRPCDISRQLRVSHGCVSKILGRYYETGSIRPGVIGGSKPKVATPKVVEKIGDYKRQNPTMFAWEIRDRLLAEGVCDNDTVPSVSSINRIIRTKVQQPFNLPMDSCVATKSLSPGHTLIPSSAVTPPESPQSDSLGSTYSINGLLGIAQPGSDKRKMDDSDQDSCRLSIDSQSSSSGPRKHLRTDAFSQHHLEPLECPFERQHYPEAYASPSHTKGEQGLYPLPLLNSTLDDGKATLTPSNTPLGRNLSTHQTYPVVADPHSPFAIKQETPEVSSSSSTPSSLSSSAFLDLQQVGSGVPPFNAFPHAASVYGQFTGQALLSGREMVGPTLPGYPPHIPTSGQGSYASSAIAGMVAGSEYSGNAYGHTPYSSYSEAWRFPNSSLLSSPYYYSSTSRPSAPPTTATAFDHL

For COc1ccc(-c2ccc3c(c2)S(=O)(=O)c2cccc(C(=O)NC[C@@H]4CCCO4)c2C3=O)cc1OC, which IC50 (H9c2) is on record?
Its IC50 is > 79 µM (inactive).

With Cc1noc(C)c1S(=O)(=O)N(C)C[C@@H]1OCCCC[C@H](C)Oc2ccc(NS(=O)(=O)c3ccc(Cl)cc3)cc2C(=O)N([C@H](C)CO)C[C@@H]1C as the molecule, how does the AC50 (Paired box protein Pax-8) read?
Its AC50 is 10.4 µM (active).

Which IC50 (Leucine aminopeptidase) does the source give for OC1(c2cn(Cc3ccccc3)nn2)CCCCC1 here?
The IC50 was 61.5 µM (active).

With CC(=O)Nc1ccc(Nc2ccc(S(=O)(=O)C(F)(F)F)cc2[N+](=O)[O-])cc1 as the molecule, how does the IC50 [1] read?
The IC50 was 20 µM (not active).

Which IC50 (H9c2) does the source give for Cc1cccc(NC(=O)c2[nH]cnc2C(=O)NCC(=O)OCc2ccccc2)c1 here?
Its IC50 is > 79 µM (inactive).

With O=C1CCCc2cc3c(cc21)CC1(C3)Cc2cc3c(cc2C1)C(=O)CCC3 as the molecule, how does the EC50 [2] read?
The EC50 was 15.6 µM (active).

And the EC50 (BJ [3])?
The EC50 was 33 µM (active).

And the EC50 (BJ [4])?
The EC50 was 3.95 µM (inconclusive).

And the EC50 (BJ [5])?
The EC50 was 9.1 µM (active).

For Cc1ccc(N=C(S)C2=C(O)c3ccccc3N(C)S2(=O)=O)cc1, which IC50 [6] is on record?
Its IC50 is > 66 µM (inactive).

And the IC50 [7]?
The IC50 was > 66 µM (inactive).

Which IC50 [1] does the source give for O=C(c1ccc(Cl)cc1Cl)N1CCC(c2nc(O)c3nnn(Cc4ccco4)c3n2)CC1 here?
The IC50 was > 50 µM (not active).

Which IC50 [1] does the source give for C=CCNC(=S)N/N=C/c1ccc(C)s1 here?
Its IC50 is 27.1 µM (not active).

For CC(Oc1ccccc1Cl)C(=O)Nc1ccc(S(=O)(=O)N2CCN(C)CC2)cc1 (configuration not stated), which IC50 [6] is on record?
Its IC50 is > 66 µM (inactive).

And the IC50 [7]?
Its IC50 is > 66 µM (inactive).

Which AC50 [8] does the source give for Cc1cc(N2CCCC2)ccc1NC(=O)CN1C(=O)NC2(CCCCC2)C1=O here?
The AC50 was 644 nM (active).

And the IC50 [9]?
Its IC50 is 268 µM (active).

For Cc1ccc(S(=O)(=O)Nc2ccc3c(c2)CC(=O)N([C@H](C)CO)C[C@@H](C)[C@H](CN(C)Cc2ccc(C(F)(F)F)cc2)O3)cc1, which AC50 [10] is on record?
Its AC50 is 10.5 µM (active).

What about the AC50 [11] of the same molecule?
The AC50 was 17.8 µM (active).

And the AC50 [12]?
Its AC50 is 21.6 µM (active).

And the AC50 [13]?
Its AC50 is 8.46 µM (active).

And the AC50 [14]?
Its AC50 is 14.1 µM (active).

What does the source list for COc1ccccc1C#Cc1ccc([C@H]2[C@H](C#N)N(C(=O)C3CCCCC3)[C@H]2CO)cc1?
AC50 [10]: 43.7 µM (active); AC50 [11]: 9.53 µM (active); AC50 [12]: 5.49 µM (active); AC50 [13]: 24.5 µM (active); AC50 [14]: 5.75 µM (active)

For Cc1cc(C(F)(F)F)nc(SCC(=O)NC2=NC(=O)C(C)S2)n1 (configuration not stated), which IC50 [6] is on record?
Its IC50 is > 66 µM (inactive).

What about the IC50 [7] of the same molecule?
The IC50 was > 66 µM (inactive).

Which EC50 [2] does the source give for Cc1cc(C)c2c(NC(=O)CCl)nn(C)c2n1 here?
The EC50 was 29.2 µM (active).

And the EC50 (BJ [3])?
The EC50 was > 150 µM (not active).

And the EC50 (BJ [4])?
The EC50 was > 150 µM (inconclusive).

And the EC50 (BJ [5])?
The EC50 was 28.7 µM (active).

Which IC50 (H9c2) does the source give for CCOc1ccc(CCNC(=O)c2cc3c(C)nccc3nc2O)cc1OCC here?
The IC50 was > 79 µM (inactive).

Which results are given for c1ccc2nc3[nH]cnc3nc2c1?
IC50 [6]: > 66 µM (inactive); IC50 [7]: > 66 µM (inactive)

For CCc1ccc(C(=O)CSc2n[nH]c(C)n2)cc1, which IC50 (Leucine aminopeptidase) is on record?
Its IC50 is 63.4 µM (active).
